Experimental findings from patent publication US20120157448A1, “COMPOUNDS FOR TREATING NEURODEGENERATIVE DISEASES” (priority 2010, published 2012) are described below.

pIC50: −log10 of the molar value.

T1 sequence (P56817 46-501): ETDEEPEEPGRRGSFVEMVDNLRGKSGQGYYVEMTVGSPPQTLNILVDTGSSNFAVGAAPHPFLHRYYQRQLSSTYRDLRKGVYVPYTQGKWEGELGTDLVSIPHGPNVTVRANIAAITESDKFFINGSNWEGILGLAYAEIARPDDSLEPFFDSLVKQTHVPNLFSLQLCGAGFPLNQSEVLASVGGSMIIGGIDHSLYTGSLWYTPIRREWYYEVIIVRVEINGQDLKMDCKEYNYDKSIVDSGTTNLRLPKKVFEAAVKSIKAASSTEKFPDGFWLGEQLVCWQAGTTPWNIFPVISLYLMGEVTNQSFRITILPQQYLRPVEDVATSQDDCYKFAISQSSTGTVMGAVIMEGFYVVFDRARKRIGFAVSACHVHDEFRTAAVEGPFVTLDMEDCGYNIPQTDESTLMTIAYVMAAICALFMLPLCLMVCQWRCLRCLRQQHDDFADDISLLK

This experiment addresses T1, BACE-1 (Homo sapiens, UniProt P56817).
T1 construct: endogenous in cells; host or cells: HEK-293 cells stably transfected with wild type APP695
The experiment is described as follows: Cellular BACE-1 inhibition assay (in vitro cellular Amyloidβ 1-40 production, HTRF immunoassay). As to conditions: inhibition of Amyloidβ 1-40 production; HEK-293 cells stably transfected with wild type APP695; 48 hours incubation; average where tested more than once; read-out: IC50. It counts as cell-based. The procedure:
Materials and Methods: HEK-293 cells stably transfected with a DNA construct containing the coding sequence for the wild type APP695 sequence were grown in Dulbecco's Modified Eagle Medium (“DMEM”) supplemented with 10% fetal bovine serum, penicillin/streptomycin and 150 μg/mL G418. Cells were plated in 96-well plates at 35,000 cells/well and allowed to attach for 8-12 hours. Media was changed to DMEM supplemented with 10% fetal bovine serum, penicillin/streptomycin 15 minutes prior to compound addition. Diluted compounds were then added at a final concentration of 0.5% DMSO. After 48 hours, 4 μL of media from each well was added to a corresponding well of a 384 well plate (Perkin Elmer Cat#6008280) containing the HTRF reagents. HTRF reagents were obtained from the CisBio Amyloid β 1-40 peptide assay kit (Cat#62B40PEC) and were prepared as follows anti-peptide β (1-40)-Cryptate and anti-peptide […] were stored in 2 plate aliquots at −80° C. Diluent and Reconstitution buffer were stored at 4° C. Aliquots of the two antibodies were diluted 1:100 with Reconstitution buffer, and this mixture was diluted 1:2 with Diluent. 12 μL of the reagent mixture was added to the required wells of the 384 well assay plate. The assay plate was incubated at 4° C. for 17 hours and then analyzed for fluorescence at 665 and 620 nm. The following compounds were tested in the above assay. Some compounds were tested more than once, and the average is reported below.
In general terms: Time-resolved FRET reads energy transfer from a long-lived donor to a nearby acceptor.
By pIC50 is commonly meant −log10 of the IC50, conventionally taken in molar units. Take `NC1=NC2(CO1)c1cc(-c3cncc(Cl)c3)ccc1OC1CCC(F)CC12` (centres unmarked) [Example 27, 7′-(5-chloropyridin-3-yl)-2′-fluoro-1′,2′,3′,4′,4a′,9a′-hexahydro-5H-spiro[oxazole-4,9′-xanthen]-2-amine]: the negative logarithm of the IC50 (pIC50) was 7.19. The value for `NC1=NC2(CO1)c1cc(-c3cncc(Cl)c3)ccc1O[C@H]1CCC(O)C[C@H]12` (some centres unmarked) [Example 48, (4a′S,9a′S)-2-amino-7′-(5-chloropyridin-3-yl)-1′,2′,3′,4′,4a′,9a′-hexahydro-5H-spiro[oxazole-4,9′-xanthen]-2′-ol] was 5.59; that for `COC1CCC2Oc3ccc(-c4cncc(Cl)c4)cc3C3(COC(N)=N3)C2C1` (centres unmarked) [Example 54, 7′-(5-chloropyridin-3-yl)-2′-methoxy-1′,2′,3′,4′,4a′,9a′-hexahydro-5H-spiro[oxazole-4,9′-xanthen]-2-amine] was 7.48; that for `N#Cc1cc(Cl)cc(-c2ccc3c(c2)[C@@]2(COC(N)=N2)[C@H]2C[C@@H](O)CC[C@@H]2O3)c1` [Example 140, 3-((2′S,4R,4a′S,9a′R)-2-amino-2′-hydroxy-1′,2′,3′,4′,4a′,9a′-hexahydro-5H-spiro[oxazole-4,9′-xanthen]-7′-yl)-5-chlorobenzonitrile] was 7.32. The value for `NC1=N[C@@]2(CS1)c1cc(-c3cncnc3)ccc1O[C@H]1CC[C@H](O)C[C@@H]12` [Example 146, (2′S,4R,4a′S,9a′R)-2-amino-7′-(pyrimidin-5-yl)-1′,2′,3′,4′,4a′,9a′-hexahydro-5H-spiro[thiazole-4,9′-xanthen]-2′-ol] was 6.72; that for `NC1=N[C@@]2(CO1)c1cc(-c3cncnc3)ccc1O[C@H]1CC[C@H](OCC3CC3)C[C@@H]12` [Example 150, (2′S,4R,4a′S,9a′R)-2′-(cyclopropylmethoxy)-7′-(pyrimidin-5-yl)-1′,2′,3′,4′,4a′,9a′-hexahydro-5H-spiro[oxazole-4,9′-xanthen]-2-amine] was 7.00. The value for `CC(C)O[C@H]1CCC2Oc3ccc(-c4cccnc4F)cc3C3(COC(N)=N3)[C@H]2C1` (stereo partly drawn) [Example 155, (2′S,4a′S,9aR)-7′-(2-fluoropyridin-3-yl)-2′-isopropoxy-1′,2′,3′,4′,4a′,9a′-hexahydro-5H-spiro[oxazole-4,9′-xanthen]-2-amine] was 7.15; that for `N#Cc1cc(Cl)cc(-c2ccc3c(c2)[C@@]2(COC(N)=N2)[C@H]2C[C@@H](OC4CCC4)CC[C@@H]2O3)c1` [Example 156, 3-((2′S,4R,4a′S,9a′R)-2-amino-2′-cyclobutoxy-1′,2′,3′,4′,4a′,9a′-hexahydro-5H-spiro[oxazole-4,9′-xanthen]-7′-yl)-5-chlorobenzonitrile] was 7.03; that for `CCO[C@H]1CC[C@@H]2Oc3ccc(-c4cc(F)cc(C#N)c4)cc3C3(COC(N)=N3)[C@H]2C1` (stereo partly drawn) [Example 159, 3-((2′S,4a′S,9a′R)-2-amino-2′-ethoxy-1′,2′,3′,4′,4a′,9a′-hexahydro-5H-spiro[oxazole-4,9′-xanthen]-7′-yl)-5-fluorobenzonitrile] was 7.12. Regarding `NC1=NC2(CO1)c1cc(-c3cccnc3F)ccc1OC1CCC3(CCO3)C[C@@H]12` (some centres unmarked) [Example 199], the pIC50 is 6.20. The value for `C[C@@]12CCO[C@@H]1[C@@]1(COC(N)=N1)c1cc(-c3cc(F)cc(Cl)c3)ccc1O2` [Example 266, (3aR,4′S,9aR)-7-(3-chloro-5-fluorophenyl)-3a-methyl-2,3,3a,9a-tetrahydro-5′H-spiro[furo[3,2-b]chromene-9,4′-oxazol]-2′-amine] was 5.28.
